Measured values as given in patent US20240189442A1, “TARGETING CONJUGATES WITH THERAPEUTIC AGENTS AND OLIGONUCLEOTIDES AND USES THEREOF” (Allygen Group, priority 2021, published 2024).
Non-standard residues stand in square brackets, D forms with d. Primed or numbered codes have the meaning given here. No end group written: not given here. PEG12′ = NH2-(PEG)12 moiety

Tests used:
[1] = Stability of SN-38 (lactone / ring-opened form) at different pH; assay type: physicochemical
Experimental: A hydrochloric acid solution with a pH of 4 and a sodium hydroxide solution with a pH of 10 were prepared respectively. 5 mg of SN-38 was dissolved in 5 mL of acetonitrile. The stability of SN-38 in a solution of changing pH (pH=10 to pH=4) was measured by shaking SN-38 at room temperature under pH=10 for 10 min, then adjusting the pH back to 4 and shake at room temperature for 10 min before sampling. SN-38 was then incubated at room temperature overnight (16 h) on a shaker and assayed afterwards.

HCT15-hPDL1 cells = assay: In vitro cytotoxicity study, CellTiter-Glo Luminescent Cell Viability Assay; assay type: cell-based, Human; conditions: 5 days exposure
Experimental: The cell line was named as HCT15-hPDL1. Cells were cultured at 37° C. with 5% C02 using RPMI1640 medium supplemented with 10% FBS, plus 1 μg/ml of puromycin.
The in vitro anti-tumor activity was determined by CellTiter-Glo® Luminescent Cell Viability Assay (Promega) according to the manufacturer's instructions. Briefly, cells were seeded into 96-well plates at 2×10^3 cells per well in 100 μL complete medium, then incubated at 37° C. with 5% CO2 overnight. Untreated cells served as control. ADCs, antibodies, or payloads in 100 μL medium were added in duplicate at various concentrations with a 2-fold dilution series starting with concentrations of 1 uM, respectively. Cells were exposed to test articles for 5 days. […]. The cell survival rate (%) was calculated using the following formula: sample/control×100%.

[2] = target: Urokinase-type Plasminogen Activator (uPA) (Homo sapiens, UniProt P00749); assay: uPA cleavage of substrate peptides measured by FRET; assay type: biochemical; conditions: uPA 7.5 × 10^−3 mg/mL, peptide 0.5 mg/mL, PBS pH=7.4
Experimental: (§1) All peptide solutions were finally diluted to 50 μL with 20 mM PBS at pH=7.4.

[3] = target: Tissue-type Plasminogen Activator (tPA) (Homo sapiens, UniProt P00750); assay: tPA digestion of substrate peptides measured by FRET; assay type: biochemical
Experimental: as §1

[4] = target: T1, TLR9 (HEK-Blue hTLR9-hPDL1 cells) (Homo sapiens, UniProt Q9NR96); assay: In vitro TLR9 activation study, SEAP reporter; assay type: cell-based; conditions: 18 hr incubation, OD 655 nm; read-out: HEK-Blue hTLR9-hPDL1 cell EC50
T1 construct: expressed in transfected cells; host or cells: HEK-Blue hTLR9-hPDL1 (HEK-Blue hTLR9 cells carrying lentiviral human PD-L1, NM_014143)
T1 sequence (Q9NR96 26-1032): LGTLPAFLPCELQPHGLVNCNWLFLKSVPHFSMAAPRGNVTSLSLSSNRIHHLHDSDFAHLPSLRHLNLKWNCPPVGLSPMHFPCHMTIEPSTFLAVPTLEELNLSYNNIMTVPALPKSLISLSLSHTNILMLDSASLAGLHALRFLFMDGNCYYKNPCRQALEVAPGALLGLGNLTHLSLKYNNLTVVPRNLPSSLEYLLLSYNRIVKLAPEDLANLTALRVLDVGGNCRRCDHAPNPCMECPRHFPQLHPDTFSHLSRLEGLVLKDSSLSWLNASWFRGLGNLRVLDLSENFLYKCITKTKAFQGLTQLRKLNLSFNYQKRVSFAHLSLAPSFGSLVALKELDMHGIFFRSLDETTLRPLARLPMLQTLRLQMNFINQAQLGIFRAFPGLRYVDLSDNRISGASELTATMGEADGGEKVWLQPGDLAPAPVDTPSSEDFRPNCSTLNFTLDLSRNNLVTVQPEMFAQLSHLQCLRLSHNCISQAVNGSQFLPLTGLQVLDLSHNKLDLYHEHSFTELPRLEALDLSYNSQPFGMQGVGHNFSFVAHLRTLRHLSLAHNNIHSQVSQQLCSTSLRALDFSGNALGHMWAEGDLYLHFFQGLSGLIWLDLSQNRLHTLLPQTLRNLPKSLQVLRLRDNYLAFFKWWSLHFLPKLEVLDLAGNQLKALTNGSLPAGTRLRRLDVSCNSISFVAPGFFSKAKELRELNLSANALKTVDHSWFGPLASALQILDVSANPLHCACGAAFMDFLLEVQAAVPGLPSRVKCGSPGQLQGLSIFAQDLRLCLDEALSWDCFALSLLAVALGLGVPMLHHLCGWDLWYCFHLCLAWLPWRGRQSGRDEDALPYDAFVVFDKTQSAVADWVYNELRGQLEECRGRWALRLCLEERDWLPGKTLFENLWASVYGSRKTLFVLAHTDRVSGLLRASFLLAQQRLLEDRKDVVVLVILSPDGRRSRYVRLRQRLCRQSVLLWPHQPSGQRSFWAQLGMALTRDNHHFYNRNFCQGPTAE
Description: Data were normalized with untreated cells as zero.

antibody Ab2B = assay: Biacore affinities between TBP and antibody; assay type: binding
Experimental: Anti-human Fab was ligated to Biacore chips at pH 4.5. […] TBPs were flowed through the chip as analytes at 30 μL/min. 10 mM glycine at pH 1.5 was used for regeneration of the chip. Conditions were optimized as needed.

CathepsinB = CathepsinB (Homo sapiens, UniProt P07858); assay: Digestion of the drug-linkers by CathepsinB; assay type: biochemical; conditions: 125 nM enzyme, 62.5 μM drug-linker, pH 5.5, 37° C., 3 hours
Experimental: To simulate the release of drug under physiological conditions, the drug-linkers were subjected to cleavage by CathepsinB, after which an elimination reaction occurred and unmodified drug was released.
Lyophilized CathepsinB enzyme powder was dissolved in 130 μL of pure water, and divided into 13 tubes of 10 μL each. At this time, the concentration of each tube was 0.15 mg/ml (4.15 μM). Activation buffer (20 mM sodium acetate, 30 mM DTT, 15 mM EDTA, pH 5.5) was then added to a tube of enzyme to activate the enzyme for 1 hour at room temperature. The activated enzyme was diluted to 125 nM with enzyme digestion buffer (25 mM sodium acetate, 1 mM EDTA, pH 5.5). Drug-linkers were added to the activated enzyme to a final concentration of 62.5 μM, and incubated at 37° C. for 3 hours.

[5] = Stability of Compound of Formula (1) and (2) in buffer; assay type: physicochemical
Experimental: Preparation of 20 mM phosphate buffer with pH=7.4 (in 1 L): 8.0 g sodium chloride, 0.2 g potassium chloride, 7.3 g disodium hydrogen phosphate dodecahydrate, and 0.48 g potassium dihydrogen phosphate was dissolved in water and dilute to 1 L at pH 7.4.
The buffer was adjusted to pH 9.0, 7.0 and 5.0 with saturated phosphoric acid solution and sodium hydroxide solution. […] The solution pH was adjusted back to 5, and shaken overnight at room temperature (16 h) before testing.

[6] = Stability of Compound of Formula (1) and (2) in plasma; assay type: in vitro ADME; conditions: pH 7.4, 0.5 mg/mL
Experimental: Preparation of protein precipitation solution: 1 g NaCl was added to 3 mL methanol and 5 mL acetonitrile, stirred for 1 h, and then allowed to stand at room temperature for 1 h before use.
200 μL protein precipitation solution was then added to the reaction solution and centrifuged at 8000 g for 10 min. The supernatant was collected for analysis.

[7] = alkaline conditions for 10 minutes, then acidic conditions before testing
[8] = pH 10 to pH 4, after incubation overnight (16 h)

Tissue-type Plasminogen Activator (tPA), sequence (P00750 36-562, species assumed): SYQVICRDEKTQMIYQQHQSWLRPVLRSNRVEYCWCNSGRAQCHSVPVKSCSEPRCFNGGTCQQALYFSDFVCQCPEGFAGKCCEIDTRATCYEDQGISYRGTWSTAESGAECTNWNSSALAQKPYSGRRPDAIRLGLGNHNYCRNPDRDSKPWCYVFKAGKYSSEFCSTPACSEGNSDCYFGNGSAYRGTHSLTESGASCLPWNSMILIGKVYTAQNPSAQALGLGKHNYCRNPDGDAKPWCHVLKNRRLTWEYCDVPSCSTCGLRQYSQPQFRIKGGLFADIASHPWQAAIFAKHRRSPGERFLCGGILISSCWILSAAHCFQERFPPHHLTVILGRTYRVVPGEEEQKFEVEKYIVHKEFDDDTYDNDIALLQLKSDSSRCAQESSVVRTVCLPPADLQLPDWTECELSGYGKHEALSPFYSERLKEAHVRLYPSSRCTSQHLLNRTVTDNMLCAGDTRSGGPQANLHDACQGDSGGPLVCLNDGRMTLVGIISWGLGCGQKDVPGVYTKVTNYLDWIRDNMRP
antibody Ab2B, sequence (as listed by the source): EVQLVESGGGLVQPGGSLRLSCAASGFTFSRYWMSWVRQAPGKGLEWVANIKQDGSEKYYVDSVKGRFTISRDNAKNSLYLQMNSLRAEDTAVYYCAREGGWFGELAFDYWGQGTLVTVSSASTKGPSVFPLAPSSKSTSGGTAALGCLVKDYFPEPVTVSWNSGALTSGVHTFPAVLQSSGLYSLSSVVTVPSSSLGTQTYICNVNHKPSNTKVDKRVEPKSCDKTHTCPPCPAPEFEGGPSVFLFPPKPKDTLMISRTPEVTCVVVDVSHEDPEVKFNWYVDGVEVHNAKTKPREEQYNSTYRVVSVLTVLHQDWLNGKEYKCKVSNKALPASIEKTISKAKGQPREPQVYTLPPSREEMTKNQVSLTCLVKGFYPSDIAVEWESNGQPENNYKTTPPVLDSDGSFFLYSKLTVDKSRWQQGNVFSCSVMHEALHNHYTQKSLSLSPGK
antibody Ab2B, sequence (as listed by the source partner): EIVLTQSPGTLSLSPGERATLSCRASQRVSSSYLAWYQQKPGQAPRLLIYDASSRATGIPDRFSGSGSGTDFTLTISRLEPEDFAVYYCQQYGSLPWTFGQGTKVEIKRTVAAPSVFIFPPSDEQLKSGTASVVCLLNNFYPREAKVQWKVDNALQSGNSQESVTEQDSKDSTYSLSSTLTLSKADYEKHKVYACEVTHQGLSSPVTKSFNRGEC

Question: Which Present as lactone ([1]; acidic conditions (pH 4)) does the source give for CCc1c2c(nc3ccc(O)cc13)-c1cc3c(c(=O)n1C2)COC(=O)[C@]3(O)CC [SN38, 7-ethyl-10-hydroxy-20(S)-camptothecin] here?
Answer: The Present as lactone was 94%.

Question: And the “Present as lactone ring-opened form” value ([1]; alkaline conditions (pH 10))?
Answer: Its value is 92%.

Question: And the Lactone ring-opening products [1, 7]?
Answer: Its Lactone ring-opening products is 42%.

Question: And the “Present in the form of lactone” value [1, 7]?
Answer: The value was 56%.

Question: What about the Lactone ring-opening products [1, 8] of the same molecule?
Answer: Its Lactone ring-opening products is 13%.

Question: What about the “Present in the form of lactone” value [1, 8] of the same molecule?
Answer: The value was 86%.

Question: What about the IC50 (HCT15-hPDL1 cells; Homo sapiens, 120 h) of the same molecule?
Answer: Its IC50 is 0.0112 µM.

Question: Which “Fluorescence Intensity Time to Reach Plateau” value (“Fluorescence Intensity Time” below) [2] does the source give for “LGGSGRSANAILE [SEQ ID NO: 52, uPA substrate peptide]” here?
Answer: Its value is 1.4 h.

Question: What about the “tPA digestion (in words)” value ([3]; tPA 7.5×10^−3 mg/mL) of the same molecule?
Answer: Its value is “mildly digested”.

Question: What about the “tPA digestion (in words)” value ([3]; tPA […]10^−2 mg/mL) of the same molecule?
Answer: Its value is “digested”.

Question: Which EC50 [4] does the source give for “CpGB: CpG ODN CpGB, used as positive control and as component of Ab3A ADOC (DNA TCGAACGTTCGAACGTTCGAACGTTCGAAT; DNA, all phosphorothioate, methylation of C not given here)” here?
Answer: The EC50 was 11.5 µM.

Question: For “SEQ ID NO: 151 ([PEG12′]RSQSRSRYYRQRQRSRRRRRRS)”, which “Binding to Ab2B (in words)” value (antibody Ab2B) is on record?
Answer: Its value is “did not bind to Ab2B”.

Question: Which “Fluorescence Intensity Time” value [2] does the source give for LSGRSDNH [SEQ ID NO: 50] here?
Answer: The value was 1.7 h.

Question: For “Glycine3-amido-PEG8-VC-PAB-DMAE-phenol linked SN38 [Compound of Formula (1)]”, which “CathepsinB digestion (in words)” value (CathepsinB) is on record?
Answer: The value was “effectively digested”.

Question: And the “Product released on CathepsinB digestion” value (CathepsinB)?
Answer: The value was “release SN38”.

Question: And the “Present in the form of lactones” value ([5]; acidic conditions (pH 5 buffer))?
Answer: The value was 88%.

Question: What about the “Present as lactones in the form of ring opening” value ([5]; alkaline conditions (pH 9 buffer)) of the same molecule?
Answer: The value was 92%.

Question: And the “Present in the form of lactones” value ([5]; alkaline conditions for 10 minutes, then acidic conditions (pH 9 to 5))?
Answer: Its value is 98%.

Question: And the “Stability in plasma (in words)” value [6]?
Answer: Its value is “partially hydrolyzed in plasma”.

Question: And the IC50 (HCT15-hPDL1 cells)?
Answer: The IC50 was over 0.3 µM.

Question: For “GSGRNAQV [SEQ ID NO: 54, uPA substrate peptide]”, which “Fluorescence Intensity Time” value [2] is on record?
Answer: Its value is 1.4 h.

Question: And the “tPA digestion (in words)” value ([3]; tPA […]10^−2 mg/mL)?
Answer: Its value is “digested”.

Question: For SGRSA [SEQ ID NO: 51], which “Fluorescence Intensity Time” value [2] is on record?
Answer: The value was 1.8 h.

Question: What about the “tPA digestion (in words)” value ([3]; tPA 7.5×10^−3 mg/mL) of the same molecule?
Answer: Its value is “mildly digested”.

Question: And the “tPA digestion (in words)” value ([3]; tPA […]10^−2 mg/mL)?
Answer: Its value is “digested”.

Question: With “LGGSGRNAQVRLE [SEQ ID NO: 53, uPA substrate peptide]” as the molecule, how does the “Fluorescence Intensity Time” value [2] read?
Answer: Its value is 1.6 h.

Question: Which “CathepsinB digestion (in words)” value (CathepsinB) does the source give for CCc1c2c(nc3ccc(O)cc13)-c1cc3c(c(=O)n1C2)COC(=O)[C@@]3(CC)OC(=O)N(C)CCN(C)C(=O)OCc1ccc(NC(=O)[C@H](CCCNC(N)=O)NC(=O)[C@@H](NC(=O)CCOCCOCCOCCOCCOCCOCCOCCOCCCNC(=O)CNC(=O)CNC(=O)CN)C(C)C)cc1 [Compound of Formula (2), Glycine3-amido-PEG8-VC-PAB-DMAE-α-hydroxy lactone linked SN38] here?
Answer: The value was “effectively digested”.

Question: And the “Product released on CathepsinB digestion” value (CathepsinB)?
Answer: The value was “release SN38 derivatives”.

Question: What about the “Present in the form of lactones in buffer” value ([5]; buffer, less affected by pH) of the same molecule?
Answer: The value was 98%.

Question: What about the “Stability in plasma (in words)” value [6] of the same molecule?
Answer: The value was “mainly in the form of lactones in the plasma”.

Question: What about the IC50 (HCT15-hPDL1 cells; Homo sapiens, 120 h) of the same molecule?
Answer: The IC50 was 0.0381 µM.
